In patent US20210400977A1, “META-DIAMIDE COMPOUNDS FOR CONTROLLING INVERTEBRATE PESTS” (FMC Corporation, priority 2018, published 2021):

Assays:
[1] = system: sweetpotato whitefly (Bemisia tabaci (Gennadius)); assay: Test G: control of sweetpotato whitefly through contact and/or systemic means; assay type: in vivo; conditions: 312 h, assessed after 13 days; for mortality at 50 ppm: sprayed at 50 ppm; for mortality at 250 ppm: sprayed at 250 ppm
Experimental: (§1) Test compounds were formulated using a solution containing 10% acetone, 90% water and 300 ppm Activator 90® non-ionic surfactant (Loveland Products, Loveland, Colo., USA). The formulated compounds were applied in 1 mL of liquid through an atomizer nozzle positioned 1.27 cm (0.5 inches) above the top of each test unit. Test compounds were sprayed at the rates indicated, and each test was replicated three times.
For evaluating control of the sweetpotato whitefly (Bemisia tabaci (Gennadius)) through contact and/or systemic means, the test unit consisted of a small open container with a 12-14-day-old cotton plant or 7-9-day-old soybean plant inside. Prior to the spray application, both cotyledons were removed from the plant, leaving one true leaf for the assay. Adult whiteflies were allowed to lay eggs on the plant and then were removed from the test unit. Cotton or soybean plants infested with at least 15 eggs were submitted to the test for spraying.
Test compounds were formulated and sprayed at 250 and/or 50 ppm. After spraying, the test units were allowed to dry for 1 hour. The cylinders were then removed, and the units were taken to a growth chamber and held for 13 days at 28° C. and 50-70% relative humidity. Each test unit was then visually assessed for insect mortality.

[2] = system: cotton melon aphid (Aphis gossypii (Glover)); assay: Test F: control of cotton melon aphid through contact and/or systemic means; assay type: in vivo; conditions: 144 h, assessed after 6 days; for mortality at 50 ppm: sprayed at 50 ppm; for mortality at 250 ppm: sprayed at 250 ppm
[3] = system: green peach aphid (Myzus persicae (Sulzer)); assay: Test E: control of green peach aphid through contact and/or systemic means; assay type: in vivo; conditions: 144 h, assessed after 6 days; for mortality at 50 ppm: sprayed at 50 ppm; for mortality at 250 ppm: sprayed at 250 ppm
Experimental: as §1
For evaluating control of green peach aphid (Myzus persicae (Sulzer)) through contact and/or systemic means, the test unit consisted of a small open container with a 12-15-day-old radish plant inside. This was pre-infested by placing on a leaf of the test plant 30-40 aphids on a piece of leaf excised from a culture plant (cut-leaf method). The aphids moved onto the test plant as the leaf piece desiccated. After pre-infestation, the soil of the test unit was covered with a layer of sand.
Test compounds were formulated and sprayed at 250 and/or 50 ppm. After spraying of the formulated test compound, each test unit was allowed to dry for 1 hour and then a black, screened cap was placed on top. The test units were held for 6 days in a growth chamber at 19-21° C. and 50-70% relative humidity. Each test unit was then visually assessed for insect mortality.

[4] = system: potato leafhopper (Empoasca fabae (Harris)); assay: Test D: control of potato leafhopper through contact and/or systemic means; assay type: in vivo; conditions: 144 h, assessed after 6 days; for mortality at 50 ppm: sprayed at 50 ppm; for mortality at 250 ppm: sprayed at 250 ppm
Experimental: as §1
For evaluating control of potato leafhopper (Empoasca fabae (Harris)) through contact and/or systemic means, the test unit consisted of a small open container with a 5-6-day-old Soleil bean plant (primary leaves emerged) inside. White sand was added to the top of the soil, and one of the primary leaves was excised prior to application of the test compound.
Test compounds were formulated and sprayed at 250 and/or 50 ppm. After spraying of the formulated test compound, the test units were allowed to dry for 1 hour before they were post-infested with 5 potato leafhoppers (18-to-21-day-old adults). A black, screened cap was placed on the top of the test unit, and the test units were held for 6 days in a growth chamber at 20° C. and 70% relative humidity. Each test unit was then visually assessed for insect mortality.

Compound | mortality at 50 ppm [1] [%] | mortality at 250 ppm [1] [%] | mortality at 50 ppm [2] [%] | mortality at 250 ppm [2] [%] | mortality at 50 ppm [3] [%] | mortality at 250 ppm [3] [%] | mortality at 50 ppm [4] [%] | mortality at 250 ppm [4] [%] | melting point [°C]
O=C(Nc1ccc(Cl)c(CNC(=O)C(F)(F)F)c1)C1C(c2ccc(F)c(Cl)c2)C1(Cl)Cl (stereo not drawn) [Compound 19, 2,2-dichloro-3-(3-chloro-4-fluorophenyl)-N-[4-chloro-3-[[(2,2,2-trifluoroacetyl)amino]methyl]phenyl]cyclopropanecarboxamide] | ≥ 70 | ≥ 70 | ≥ 80 | ≥ 80 | ≥ 80 | ≥ 80 | ≥ 80 | ≥ 80 | –
CN(Cc1cc(NC(=O)C2C(c3cc(Cl)cc(Cl)c3)C2(F)F)ccc1Cl)C(=O)C1CC1 (stereo not drawn) [Compound 32] | – | – | – | – | – | – | – | – | 151 to 155
O=C(NCc1cc(NC(=O)C2C(c3ccc(F)c(C(F)(F)F)c3)C2(Cl)Cl)ccc1Cl)C1CC1 (stereo not drawn) [Compound 39, 2,2-dichloro-N-[4-chloro-3-[[(cyclopropylcarbonyl)amino]methyl]phenyl]-3-[4-fluoro-3-(trifluoromethyl)phenyl]cyclopropanecarboxamide] | ≥ 70 | ≥ 70 | ≥ 80 | ≥ 80 | ≥ 80 | ≥ 80 | ≥ 80 | ≥ 80 | –
CC(=O)NCc1cc(NC(=O)C2C(c3cc(Cl)cc(Cl)c3)C2(F)F)ccc1Cl (stereo not drawn) [Compound 47] | – | – | ≥ 80 | ≥ 80 | – | ≥ 80 | ≥ 80 | ≥ 80 | –
O=C(NCc1cc(NC(=O)C2C(c3cc(Cl)cc(Cl)c3)C2(F)F)ccc1Cl)C1CC1 (stereo not drawn) [Compound 48] | – | – | – | ≥ 80 | – | – | ≥ 80 | ≥ 80 | –
CCC(=O)NCc1cc(NC(=O)C2C(c3cc(Cl)cc(Cl)c3)C2(Cl)Cl)ccc1F (stereo not drawn) [Compound 55, 2,2-dichloro-3-(3,5-dichlorophenyl)-N-[4-fluoro-3-[(propanoylamino)methyl]phenyl]cyclopropane-1-carboxamide] | – | – | ≥ 80 | ≥ 80 | ≥ 80 | ≥ 80 | ≥ 80 | ≥ 80 | –
O=C(NCc1cc(NC(=O)C2C(c3cc(Cl)cc(Cl)c3)C2(Cl)Cl)ccc1Cl)C1CC1 (stereo not drawn) [Compound 62, 2,2-dichloro-N-[4-chloro-3-[(cyclopropanecarbonylamino)methyl]phenyl]-3-(3,5-dichlorophenyl)cyclopropane-1-carboxamide] | – | ≥ 70 | ≥ 80 | ≥ 80 | ≥ 80 | ≥ 80 | ≥ 80 | ≥ 80 | –
O=C(NCc1cc(NC(=O)C2C(c3ccc(F)c(C(F)(F)F)c3)C2(Cl)Cl)ccc1F)C1CC1 (stereo not drawn) [Compound 77, 2,2-dichloro-N-[3-[[(cyclopropylcarbonyl)amino]methyl]-4-fluorophenyl]-3-[4-fluoro-3-(trifluoromethyl)phenyl]cyclopropanecarboxamide] | ≥ 70 | ≥ 70 | ≥ 80 | – | ≥ 80 | – | ≥ 80 | – | –
O=C(CC(F)(F)F)NCc1cc(NC(=O)C2C(c3ccc(F)c(C(F)(F)F)c3)C2(Cl)Cl)ccc1F (stereo not drawn) [Compound 78, 2,2-dichloro-3-[4-fluoro-3-(trifuoromethyl)phenyl]-N-[4-fluoro-3-[[(3,3,3-trifluoro-1-oxopropyl)amino]methyl]phenyl]cyclopropanecarboxamide] | ≥ 70 | – | ≥ 80 | – | ≥ 80 | – | ≥ 80 | – | –
O=C(CC(F)(F)F)NCc1cc(NC(=O)C2C(c3ccc(Cl)c(Cl)c3)C2(Cl)Cl)ccc1F (stereo not drawn) [Compound 79, 2,2-dichloro-3-(3,4-dichlorophenyl)-N-[4-fluoro-3-[[(3,3,3-trifluoro-1-oxopropyl)amino]methyl]phenyl]cyclopropanecarboxa-mide] | – | ≥ 70 | ≥ 80 | – | – | – | ≥ 80 | – | –
CCC(=O)NC(C)c1cc(NC(=O)C2C(c3cc(Cl)cc(Cl)c3)C2(Cl)Cl)ccc1Cl (stereo not drawn) [Compound 86] | – | – | – | – | – | – | ≥ 80 | – | –
CC(NC(=O)C1CC1)c1cc(NC(=O)C2C(c3cc(Cl)cc(Cl)c3)C2(Cl)Cl)ccc1Cl (stereo not drawn) [Compound 87] | – | – | – | – | – | – | ≥ 80 | – | –
O=C(CC(F)(F)F)NCc1cc(NC(=O)C2C(c3ccc(F)c(C(F)(F)F)c3)C2(Cl)Cl)ccc1Cl (stereo not drawn) [Compound 116, 2,2-dichloro-N-[4-chloro-3-[[(3,3,3-trifluoro-1-oxopropyl)amino]methyl]phenyl]-3-[4-fluoro-3-(trifluoromethyl)phenyl]cyclopropanecarboxamide] | – | – | – | – | – | – | ≥ 80 | – | –
O=C(CC(F)(F)F)NCc1cc(NC(=O)C2C(c3cc(F)c(F)c(F)c3)C2(Cl)Cl)ccc1Cl (stereo not drawn) [Compound 118, 2,2-dichloro-N-[4-chloro-3-[[(3,3,3-trifluoro-1-oxopropyl)amino]methyl]phenyl]-3-(3,4,5-trifluorophenyl)cyclopropanecarboxamide] | – | ≥ 70 | – | – | – | – | ≥ 80 | – | –
O=C(CC(F)(F)F)NCc1cc(NC(=O)C2C(c3cc(F)cc(Cl)c3)C2(Cl)Cl)ccc1F (stereo not drawn) [Compound 129, 2,2-dichloro-3-(3-chloro-5-fluorophenyl)-N-[4-fluoro-3-[[(3,3,3-trifluoro-1-oxopropyl)amino]methyl]phenyl]cyclopropanecarboxamide] | ≥ 70 | ≥ 70 | ≥ 80 | – | ≥ 80 | – | ≥ 80 | – | –
CC(=O)NCc1ccc(Cl)c(NC(=O)C2C(c3cc(Cl)cc(Cl)c3)C2(Cl)Cl)c1 (stereo not drawn) [Compound 135] | – | – | – | – | – | – | – | – | 101 to 105
CCC(=O)NCc1cc(NC(=O)C2C(c3cc(Cl)cc(Cl)c3)C2(Cl)Cl)ccc1Cl (stereo not drawn) [Compound 147] | ≥ 70 | ≥ 70 | ≥ 80 | ≥ 80 | ≥ 80 | ≥ 80 | ≥ 80 | ≥ 80 | –
O=C(NCc1cc(NC(=O)C2C(c3cc(Cl)cc(Cl)c3)C2(Cl)Cl)ccc1Cl)C1CC1 (stereo not drawn) [Compound 148] | ≥ 70 | – | – | – | – | – | – | – | –
O=C(NCc1c(F)ccc(NC(=O)C2C(c3ccc(F)c(Cl)c3)C2(Cl)Cl)c1F)C1CC1 (stereo not drawn) [Compound 164, 2,2-dichloro-3-(3-chloro-4-fluorophenyl)-N-[3-[[(cyclopropylcarbonyl)amino]methyl]-2,4-difluorophenyl]cyclopropanecarboxamide] | – | – | – | – | – | – | ≥ 80 | – | –
O=C(CC(F)(F)F)NCc1cc(NC(=O)C2C(c3cc(F)c(Cl)c(F)c3)C2(Cl)Cl)ccc1F (stereo not drawn) [Compound 169, 2,2-dichloro-3-(4-chloro-3,5-difluorophenyl)-N-[4-fluoro-3-[[(3,3,3-trifluoro-1-oxopropyl)amino]methyl]phenyl]cyclopropanecarboxamide] | – | – | ≥ 80 | – | ≥ 80 | – | ≥ 80 | – | –
O=C(CC(F)(F)F)NCc1c(F)ccc(NC(=O)C2C(c3ccc(F)c(Cl)c3)C2(Cl)Cl)c1F (stereo not drawn) [Compound 170, 2,2-dichloro-3-(3-chloro-4-fluorophenyl)-N-[2,4-difluoro-3-[[(3,3,3-trifluoro-1-oxopropyl)amino]methyl]phenyl]cyclopropanecarboxamide] | – | – | ≥ 80 | – | ≥ 80 | – | ≥ 80 | – | –
O=C(Nc1ccc(Cl)c(CNC(=O)C(F)(F)F)c1)C1C(c2ccc(F)c(C(F)(F)F)c2)C1(Cl)Cl (stereo not drawn) [Compound 174, 2,2-dichloro-N-[4-chloro-3-[[(2,2,2-trifluoroacetyl)amino]methyl]phenyl]-3-[4-fluoro-3-(trifluoromethyl)phenyl]cyclopropanecarboxamide] | – | ≥ 70 | ≥ 80 | – | ≥ 80 | – | ≥ 80 | – | –
O=C(Nc1ccc(Cl)c(CNC(=O)C(F)(F)F)c1)C1C(c2ccc(Cl)c(Cl)c2)C1(Cl)Cl (stereo not drawn) [Compound 175, 2,2-dichloro-N-[4-chloro-3-[[(2,2,2-trifluoroacetyl)amino]methyl]phenyl]-3-(3,4-dichlorophenyl)cyclopropanecarboxamide] | – | – | ≥ 80 | – | ≥ 80 | – | ≥ 80 | – | –
